Reference: patent publication US20110212853A1, “NOVEL DIAGNOSTIC METHOD” (PROBIODRUG AG, priority 2010, published 2011)

Tests used:
recombinant human QC = recombinant human QC (Homo sapiens, UniProt Q16769); assay: Chemotactic potency of human MCP-1 in absence or presence of a QC-inhibitor (QC-mediated pGlu formation, then DP4 cleavage); type: biochemical; settings: 10 μM inhibitor, FIG. 12
Method: Recombinant human MCP-1(1-76) (SEQ ID NO: 1) starting with an N-terminal glutamine (Peprotech) was dissolved in 25 mM Tris/HCl pH 7.6 in a concentration of 10 μg/ml. The MCP-1 solution was either pre-incubated with recombinant human QC (0.0006 mg/ml) for 3 h at 30° C. and subsequently incubated with recombinant human DP4 (0.0012 mg/ml) at 30° C. or incubated with DP4 without prior QC application. In addition, the incubation of Gln^1-MCP-1 with recombinant human QC was carried out in the presence of 10 μM of 1-(3-(1H-imidazol-1-yl)propyl)-3-(3,4-dimethoxyphenyl)thiourea hydrochloride. Resulting DP4 cleavage products were analyzed using Maldi-TOF mass spectrometry after 0 min, 15 min, 30 min, 1 h, 2 h and 4 h.
The chemotaxis assay was performed using 24 well TransWell plates with a pore size of 5 μm (Corning). THP-1 cells were suspended in RPMI1640 in a concentration of 1*10^6 cells/100 μl and applied in 100 μl aliquots to the upper chamber. Cells were allowed to migrate towards the chemoattractant for 2 h at 37° C. […] Afterwards, cells migrated to the lower chamber were counted using a cell counter system (Schärfe System). The chemotactic index was calculated by dividing cells migrated to the stimulus from cells migrated to the negative control. […]

RAW 264.7 cells = assay: Western Blot of mMCP-1 N1pE and total mMCP-1 in RAW 264.7 cell culture supernatant; type: cell-based, mouse; settings: RAW 264.7 supernatants, different QCI
Method: Stimulation of RAW 264.7 and inhibitor application occurred according to Example 9. For Western Blot analysis, proteins of cell culture supernatants were separated by application to a SDS gel electrophoresis. Separated proteins were electrically transferred to nitrocellulose membranes. Membranes were blocked for one hour with TBST-M (=TBST+5% skimmed milk) at room temperature with gentle shaking. Antibody incubation occurred over night at 4° C. on a rocking platform with the detection antibody for total mMCP-1 (Rat anti mouse MCP-1, R&D Systems) diluted to 1 μg/ml in equal volumes of TBST-M or the detection antibody for mMCP-1 N1pE (clone 332-4B8), respectively. Secondary anti-mouse and anti-rat antibody conjugated with horseradish peroxidase were used for signal detection, following standard procedures.

[1] = test system: thioglycollate-induced peritonitis; assay: mMCP-1 N1pE/mMCP-1 ratio and monocyte infiltration in mice treated with thioglycollate and QCI; type: in vivo, mouse; settings: QCI intraperitoneal 30 minutes before thioglycollate
Method: To capture mouse MCP-1, commercially available polyclonal antiserum rabbit anti mJE (Peprotech, Hamburg, Germany) as capture antibody which specifically binds mouse MCP-1 was diluted in PBS to 500 ng/ml and immobilized in polystyrene 96-well microtitre plates over 4-7 nights at 4° C. Thereafter, blocking occurred for 2 hours at room temperature with ELISA Blocker (Thermo Fisher Scientific, Waltham, USA). For preparation of the standard curve recombinant mMCP-1 was incubated with mouse Glutaminyl Cyclase (QC) in order to obtain mMCP-1 N1pE. The recombinant mMCP-1 N1pE standard peptide was serially diluted with ELISA Blocker from 1950 pg/ml down to 19.5 pg/ml and added to the wells in duplicate. Two wells filled with ELISA Blocker represent the standard curve value 0 pg/ml. After an incubation period of 2 hours at room temperature, plates were washed at least three times with TBS-T. For detection of mMCP-1 N1pE, the MCP-1 N1pE antibody clone 348-2C9 together with HRP-conjugated anti mouse antibody were both diluted in ELISA Blocker to final concentrations of 500 ng/ml. […] Absorption at 450/540 nm was determined by a Tecan Sunrise plate reader. […]
Thioglycollate was injected intraperitoneal in mice. […] Infiltrated monocytes were counted by FACS analysis via double staining of 7/4 and Ly6G antigens.

Chain of recombinant human QC (Q16769 29-361): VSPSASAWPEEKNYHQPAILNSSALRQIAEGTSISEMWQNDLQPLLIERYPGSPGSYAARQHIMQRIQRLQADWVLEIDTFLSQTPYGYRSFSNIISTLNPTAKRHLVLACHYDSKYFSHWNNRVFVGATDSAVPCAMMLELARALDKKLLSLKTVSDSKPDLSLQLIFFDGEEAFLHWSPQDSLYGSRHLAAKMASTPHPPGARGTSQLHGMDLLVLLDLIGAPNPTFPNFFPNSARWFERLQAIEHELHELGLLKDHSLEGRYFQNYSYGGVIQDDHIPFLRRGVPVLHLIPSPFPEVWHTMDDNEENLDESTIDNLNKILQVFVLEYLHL

In the case of COc1ccc(NC(=S)NCCCn2ccnc2)cc1OC.Cl [QCI, 1-(3-(1H-imidazol-1-yl)propyl)-3-(3,4-dimethoxyphenyl)thiourea hydrochloride], the “pGlu-formation of Gln^1-MCP-1 by QC” value (recombinant human QC) is reported as “prevents pGlu-formation”, the “Western Blot signal of mMCP-1 N1pE” value (RAW 264.7 cells; FIG. 22A) is reported as “concentration dependent” and the “Western Blot signal intensity of total mMCP-1” value (RAW 264.7 cells; FIG. 22B) is reported as “no change”. The “number of infiltrating monocytes to the peritoneum” value ([1]; FACS, FIG. 23B) was “decreased number” and the “mMCP-1 N1pE/mMCP-1 ratio in peritoneal lavage fluid” value ([1]; lavage after 4 h) was “dose dependent reduction”.
